Assay results taken from PubChem BioAssay (NCI).
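GI50 = concentration required for 50% inhibition of growth. Definition used: TGI = concentration required for complete inhibition of growth.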

Columns and labels:
Assay in all cases: growth of human tumour cells (NCI), 384-well format
[1] = test system: SK-OV-3 ovarian
[2] = test system: SK-MEL-28 melanoma
[3] = test system: LOX IMVI melanoma
[4] = test system: MALME-3M melanoma
[5] = test system: NCI-H522 lung
[6] = test system: OVCAR-3 ovarian
[7] = test system: HOP-62 NSCLC
[8] = test system: NCI/ADR-RES ovarian
[9] = test system: A549 NSCLC
[10] = test system: TK-10 renal
[11] = test system: SN12C renal
[12] = test system: SK-MEL-5 melanoma
[13] = test system: HCC-2998 colon
[14] = test system: IGROV1 ovarian
[15] = test system: U251 glioblastoma
[16] = test system: HT29 colon
[17] = test system: OVCAR-8 ovarian
[18] = test system: RPMI-8226 leukemia
[19] = test system: A498 renal
[20] = test system: M14 melanoma
[21] = test system: KM12 colon
[22] = test system: MDA-MB-231 breast
[23] = test system: UACC-257 melanoma
[24] = test system: SNB-19 CNS
[25] = test system: MDA-MB-435 melanoma
[26] = test system: SF-539 CNS
[27] = test system: PC-3 prostate
[28] = test system: HL-60(TB) leukemia
[29] = test system: HCT-15 colon
[30] = test system: SNB-75 CNS
[31] = test system: NCI-H23 lung
[32] = test system: NCI-H460 NSCLC
[33] = test system: RXF 393 renal
[34] = test system: ACHN renal
[35] = test system: SR leukemia
[36] = test system: SF-295 CNS
[37] = test system: HOP-92 NSCLC
[38] = test system: HS 578T breast
[39] = test system: DU-145 prostate
[40] = test system: BT-549 breast
[41] = test system: SF-268 CNS
[42] = test system: T-47D breast
[43] = test system: EKVX NSCLC
[44] = test system: MCF7 breast
[45] = test system: MDA-MB-468 breast
[46] = test system: CAKI-1 renal
[47] = test system: HCT-116 colon
[48] = test system: OVCAR-4 ovarian
[49] = test system: MOLT-4 leukemia
[50] = test system: UACC-62 melanoma
[51] = test system: COLO 205 colon
[52] = test system: NCI-H322M lung
[53] = test system: OVCAR-5 ovarian
[54] = test system: NCI-H226 lung

`N[C@@H]1CCCN(c2c(/C=C3\SC(=O)NC3=O)cccc2-c2ccccc2)C1` was tested, and the GI50 [1] was 14.8 µM, the TGI [1] was 28.5 µM and the GI50 [2] was 16.9 µM. The TGI [2] was 30.7 µM, the GI50 [3] was 17.8 µM and the TGI [3] was 31.6 µM. The GI50 [4] was 12.9 µM, the TGI [4] was 25.7 µM and the GI50 [5] was 13.5 µM. For the same compound, the TGI [5] was 26.4 µM, the GI50 [6] was 13.1 µM and the TGI [6] was 25.9 µM. For the same compound, the GI50 [7] was 11.7 µM, the TGI [7] was 23.9 µM and the GI50 [8] was 18.1 µM. It also gave a TGI [8] of 33.1 µM, a GI50 [9] of 16.7 µM and a TGI [9] of 30.8 µM. For the same compound, the GI50 [10] was 12.3 µM, the TGI [10] was 24.9 µM and the GI50 [11] was 19.4 µM. It also gave a TGI [11] of 33.6 µM, a GI50 [12] of 11.4 µM and a TGI [12] of 23.5 µM. The GI50 [13] was 14.5 µM, the TGI [13] was 27.7 µM and the GI50 [14] was 17.1 µM. For the same compound, the TGI [14] was 31.2 µM, the GI50 [15] was 8.54 µM and the TGI [15] was 20.8 µM. It also gave a GI50 [16] of 15.2 µM, a TGI [16] of 28.8 µM and a GI50 [17] of 16.2 µM. It also gave a TGI [17] of 29.9 µM, a GI50 [18] of 0.543 µM and a TGI [18] of 3.07 µM. It also gave a GI50 [19] of 16.6 µM, a TGI [19] of 30.3 µM and a GI50 [20] of 14.6 µM. For the same compound, the TGI [20] was 27.8 µM, the GI50 [21] was 16.9 µM and the TGI [21] was 30.8 µM. It also gave a GI50 [22] of 14.5 µM, a TGI [22] of 27.8 µM and a GI50 [23] of 15.9 µM. The TGI [23] was 29.4 µM, the GI50 [24] was 4.67 µM and the TGI [24] was 15 µM. The GI50 [25] was 15.1 µM, the TGI [25] was 28.5 µM and the GI50 [26] was 7.38 µM. For the same compound, the TGI [26] was 20.2 µM, the GI50 [27] was 13.2 µM and the TGI [27] was 26 µM. The GI50 [28] was 1.31 µM, the TGI [28] was 16.5 µM and the GI50 [29] was 17.7 µM. For the same compound, the TGI [29] was 31.7 µM, the GI50 [30] was 3.5 µM and the TGI [30] was 12.1 µM. For the same compound, the GI50 [31] was 16.8 µM, the TGI [31] was 30.6 µM and the GI50 [32] was 16.8 µM. It also gave a TGI [32] of 30.6 µM, a GI50 [33] of 17 µM and a TGI [33] of 30.8 µM. The GI50 [34] was 17.7 µM, the TGI [34] was 31.7 µM and the GI50 [35] was 1.16 µM. The TGI [35] was 15.5 µM, the GI50 [36] was 6.08 µM and the TGI [36] was 18.7 µM. It also gave a GI50 [37] of 11.5 µM, a TGI [37] of 23.8 µM and a GI50 [38] of 13.8 µM. The TGI [38] was 26.8 µM, the GI50 [39] was 16.9 µM and the TGI [39] was 30.7 µM. The GI50 [40] was 1.9 µM, the TGI [40] was 4.17 µM and the GI50 [41] was 16.8 µM. For the same compound, the TGI [41] was 30.6 µM, the GI50 [42] was 15.6 µM and the TGI [42] was 29 µM. The GI50 [43] was 16.4 µM, the TGI [43] was 30 µM and the GI50 [44] was 14.5 µM. It also gave a TGI [44] of 27.8 µM, a GI50 [45] of 14.6 µM and a TGI [45] of 27.8 µM. For the same compound, the GI50 [46] was 18.5 µM, the TGI [46] was 32.8 µM and the GI50 [47] was 15.4 µM. For the same compound, the TGI [47] was 28.9 µM, the GI50 [48] was 12.3 µM and the TGI [48] was 25.3 µM. The GI50 [49] was 13.4 µM, the TGI [49] was 26.3 µM and the GI50 [50] was 16.6 µM. For the same compound, the TGI [50] was 30.4 µM, the GI50 [51] was 14.1 µM and the TGI [51] was 27.1 µM. The GI50 [52] was 18 µM, the TGI [52] was 31.9 µM and the GI50 [53] was 17 µM. It also gave a TGI [53] of 30.8 µM, a GI50 [54] of 13.8 µM and a TGI [54] of 26.7 µM.
`N#Cc1ccc(C(c2ccc(C#N)cc2)n2cncn2)cc1` showed a GI50 [33] of 16.8 µM and a TGI [33] of 97.8 µM.
